# Measured values published in ChEMBL document CHEMBL1201862, “PubChem BioAssay data set” (2004).
#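 Each compound was tested at five concentrations against cells in 96-well plates for 48 hours. GI50: concentration for 50% inhibition of growth.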 Activity calls are given as the source filed them. Rule as the data show it: active = GI50 up to about 1.1 µM and inactive = higher.
# Key:
# Assay in all cases: inhibition of tumour cell growth, NCI panel, 48 h
# NCI-H460 = test system: NCI-H460
# OVCAR-4 = test system: OVCAR-4
# OVCAR-8 = test system: OVCAR-8
# NCI-H226 = test system: NCI-H226
# HOP-62 = test system: HOP-62
# SF-539 = test system: SF-539
# NCI/ADR-RES = test system: NCI/ADR-RES
# UACC-257 = test system: UACC-257
# RXF 393 = test system: RXF 393
# HT-29 = test system: HT-29
# HL-60 = test system: HL-60
# Malme-3M = test system: Malme-3M
# SN12C = test system: SN12C
# MCF7 = test system: MCF7
# PC-3 = test system: PC-3
# HCT-116 = test system: HCT-116
# HOP-92 = test system: HOP-92
# SF-268 = test system: SF-268
# HCC 2998 = test system: HCC 2998
# COLO 205 = test system: COLO 205
# KM12 = test system: KM12
# ACHN = test system: ACHN
# T47D = test system: T47D
# DU-145 = test system: DU-145
# TK-10 = test system: TK-10
# SW-620 = test system: SW-620
# MDA-MB-435 = test system: MDA-MB-435
# NCI-H23 = test system: NCI-H23
# EKVX = test system: EKVX
# RPMI-8226 = test system: RPMI-8226
# OVCAR-3 = test system: OVCAR-3
# K562 = test system: K562
# SK-MEL-2 = test system: SK-MEL-2
# CAKI-1 = test system: CAKI-1
# IGROV-1 = test system: IGROV-1
# SNB-19 = test system: SNB-19
# SK-MEL-28 = test system: SK-MEL-28
# 786-0 = test system: 786-0
# SK-MEL-5 = test system: SK-MEL-5
# UO-31 = test system: UO-31
# A498 = test system: A498
# CCRF-CEM = test system: CCRF-CEM
# HCT-15 = test system: HCT-15
# SK-OV-3 = test system: SK-OV-3
# SR = test system: SR
# A549 = test system: A549
# M14 = test system: M14
# MDA-N = test system: MDA-N
# U-251 = test system: U-251
# SF-295 = test system: SF-295
# Hs-578T = test system: Hs-578T
# NCI-H522 = test system: NCI-H522
# SNB-75 = test system: SNB-75
# MDA-MB-231 = test system: MDA-MB-231
# LOX IMVI = test system: LOX IMVI
# OVCAR-5 = test system: OVCAR-5
# UACC-62 = test system: UACC-62
structure (smiles),measurement,setting,value
CC(=O)c1ccc2c(c1)CC1(C2)Cc2cc3c(cc2C1)C(=O)CC3 (configuration not stated),GI50,NCI-H460,453 nM (active)
same,GI50,OVCAR-4,2550 nM (inactive)
same,GI50,OVCAR-8,3490 nM (inactive)
same,GI50,NCI-H226,310 nM (active)
same,GI50,HOP-62,2670 nM (inactive)
same,GI50,SF-539,733 nM (active)
same,GI50,NCI/ADR-RES,1570 nM (inactive)
same,GI50,UACC-257,11400 nM (inactive)
same,GI50,RXF 393,2280 nM (inactive)
same,GI50,HT-29,1070 nM (active)
same,GI50,HL-60,760 nM (active)
same,GI50,Malme-3M,1350 nM (inactive)
same,GI50,SN12C,4250 nM (inactive)
same,GI50,MCF7,429 nM (active)
same,GI50,PC-3,3130 nM (inactive)
same,GI50,HCT-116,2100 nM (inactive)
same,GI50,HOP-92,4210 nM (inactive)
same,GI50,SF-268,3150 nM (inactive)
same,GI50,HCC 2998,910 nM (active)
same,GI50,COLO 205,344 nM (active)
same,GI50,KM12,624 nM (active)
same,GI50,ACHN,3070 nM (inactive)
same,GI50,T47D,3330 nM (inactive)
same,GI50,DU-145,1400 nM (inactive)
same,GI50,TK-10,9350 nM (inactive)
same,GI50,SW-620,681 nM (active)
same,GI50,MDA-MB-435,242 nM (active)
same,GI50,NCI-H23,3060 nM (inactive)
same,GI50,EKVX,6000 nM (inactive)
same,GI50,RPMI-8226,345 nM (active)
same,GI50,OVCAR-3,493 nM (active)
same,GI50,K562,521 nM (active)
same,GI50,SK-MEL-2,356 nM (active)
same,GI50,CAKI-1,2030 nM (inactive)
same,GI50,IGROV-1,2670 nM (inactive)
same,GI50,SNB-19,1670 nM (inactive)
same,GI50,SK-MEL-28,3550 nM (inactive)
same,GI50,786-0,3640 nM (inactive)
same,GI50,SK-MEL-5,608 nM (active)
same,GI50,UO-31,9530 nM (inactive)
same,GI50,A498,401 nM (active)
same,GI50,CCRF-CEM,650 nM (active)
same,GI50,HCT-15,1080 nM
same,GI50,SK-OV-3,723 nM (active)
same,GI50,SR,322 nM (active)
same,GI50,A549,792 nM (active)
same,GI50,M14,2000 nM (inactive)
same,GI50,MDA-N,207 nM (active)
same,GI50,U-251,1800 nM (inactive)
same,GI50,SF-295,594 nM (active)
same,GI50,Hs-578T,5730 nM (inactive)
same,GI50,NCI-H522,1930 nM (inactive)
same,GI50,SNB-75,32000 nM (inactive)
same,GI50,MDA-MB-231,2510 nM (inactive)
same,GI50,LOX IMVI,6370 nM (inactive)
same,GI50,OVCAR-5,6750 nM (inactive)
same,GI50,UACC-62,3290 nM (inactive)
